Literature values in US20260294906A1, “TREATING PSORIASIS USING A SMALL MOLECULE INHIBITOR OF TUMOR NECROSIS FACTOR ALPHA” (SANOFI, priority 2023, published 2026).

Columns and labels:
sTNFα = details: O'Connell et al.; cited from earlier work
TNFR1 = details: Jurkat cells; sTNFα pre-incubated with the substance, compared with sTNFα alone; cited from earlier work

For Cc1ccc(C)c(Cn2c(C(O)c3ccncc3)nc3ccc(-c4cnn(C)c4)cc32)c1 (stereo not drawn) [UCB-9260, reference compound], the “stabilization of the asymmetric sTNFα trimer” value (sTNFα) is given as “stabilizes the asymmetric sTNFα trimer” and the “TNFR1 signaling (RIP-1 ubiquitination and NF-κB phosphorylation)” value (TNFR1) is given as “impaired”.

For etanercept, the “TNFR1 signaling (RIP-1 ubiquitination and NF-κB phosphorylation)” value (TNFR1) is listed as “impaired”.
